Structures are written as SMILES. Where only a bound is given, the exact number is not on record here.

These results are taken from patent US6107549A, “Genetically engineered plant resistance to thiazopyr and other pyridine herbicides” (Monsanto Company, priority 1999, dated 2000).

One series relates to pyridine-esterase. Format: biochemical, rabbit. How it is done:
(§1) Esterase activity assays. Esterase activity was measured in vitro by conversion of either [^14 C]thiazopyr or [^14 C]MON 14300 to their corresponding monoacid. Pyridine-esterase activity was assayed during protein purification and from tissue extracts of transgenic plants. The homogenizing buffer for plant tissues consisted of 100 mM Tris pH 8.0, 1 mM EDTA, 1 mM DTT, and 10% glycerol in water. Plant tissues (1 g/ml buffer) including leaves, seeds, flowers, seedlings, etc. were homogenized in conical centrifuge tubes using a spinning pestle at 4° C. Following centrifugation (12,000× g), the supernatant (250 μl) was assayed immediately for esterase activity by incubation with [^14 C]thiazopyr or [^14 C]MON 14300 (4 μg) in 0.1 M Tris pH 8.0 buffer (50 μl) at 37° C. The reaction was sampled (100 μL) at various times (0.5 to 100 hr) to generate a kinetic profile of monoacid formation. The reaction was stopped by addition of 1% trifluoroacetic acid in acetonitrile (v/v, 150 μl). Following centrifugation (12,000× g for 3 min), the supernatant was analyzed by HPLC/RAD (radioactivity detection) to resolve the monoacid from the parent herbicide and other metabolites. Control reactions in the absence of the esterase recovered un-reacted thiazopyr or MON 14300 for the duration of experiments. Esterase activity was also assayed during protein purification following a similar procedure except a single time-point (1-2 hrs) of incubation was selected within the linear range of reaction. In vitro assays also employed three commonly used calorimetric (p-nitrophenyl butyrate) or fluorescent (4-methyl umbelliferyl butyrate and 5-bromo-4-chloro-3-indolylacetate) substrates. These substrates are useful in rapidly and qualitatively detecting general esterase activity.
Tissue extracts from 3 tobacco R1 seedlings were employed for further studies. Two of the lines (#37437 and #37432) expressed high levels of esterase (~0.5%) and one line (#37436) which expressed no pyridine-esterase was used as negative control. Tissue extracts were incubated with [^14 C]MON 14300 and formation of the monoacid monitored with time. […] In comparison, less that 2% monoacid was detected in line (#37436). […] First, pyridine-esterase was capable of driving the hydrolysis reaction to completion with no apparent product inhibition, and second, there was no endogenous esterase activity in tobacco which catalyzed MON 14300 hydrolysis.

The test system of the next series is tomato seedlings. Conditions: in vivo. How it is done:
Esterase activity was also monitored in plants. [^14 C]Thiazopyr or [^14 C]MON 14300 (1-4 μg in acetonitrile) was applied directly to shoots and cotyledons of young seedlings. After 2 days in a growth chamber, tobacco or tomato seedlings were washed with methanol and water, then homogenized (TISSUMIZER™, Tekmar-Dohrmann, Cincinnatti, Ohio) in 5% (v/v) trifluoroacetic acid in acetonitrile (fresh w/v ratio of 2/1). Homogenates were clarified by centrifugation (12,000× g) and supernatants analyzed by HPLC/RAD for the formation of the monoacid metabolite.
MON 14300 was applied to the shoot of 2-day old seedlings. Two days after treatment, seedlings were washed with methanol and tissue extracts analyzed by HPLC. The HPLC chromatograms show signals from both the UV254 nm (upper trace, FIG. 5) and radioactivity (lower trace, FIG. 5) detectors. For the purpose of metabolite identification, plant extracts were co-injected with a mixture of authentic standards visible under UV detection. […] In both transgenic lines, small levels of more polar products, presumably from further degradation of the monoacid as reported by McClanahan et al. (1995), were detected near the solvent front.

A further series deals with T1, RLE1 (Oryctolagus cuniculus, UniProt P12337).
T1 construct: tissue Professor J. Ozols; host or cells: rabbit liver
T1 sequence (P12337 19-565): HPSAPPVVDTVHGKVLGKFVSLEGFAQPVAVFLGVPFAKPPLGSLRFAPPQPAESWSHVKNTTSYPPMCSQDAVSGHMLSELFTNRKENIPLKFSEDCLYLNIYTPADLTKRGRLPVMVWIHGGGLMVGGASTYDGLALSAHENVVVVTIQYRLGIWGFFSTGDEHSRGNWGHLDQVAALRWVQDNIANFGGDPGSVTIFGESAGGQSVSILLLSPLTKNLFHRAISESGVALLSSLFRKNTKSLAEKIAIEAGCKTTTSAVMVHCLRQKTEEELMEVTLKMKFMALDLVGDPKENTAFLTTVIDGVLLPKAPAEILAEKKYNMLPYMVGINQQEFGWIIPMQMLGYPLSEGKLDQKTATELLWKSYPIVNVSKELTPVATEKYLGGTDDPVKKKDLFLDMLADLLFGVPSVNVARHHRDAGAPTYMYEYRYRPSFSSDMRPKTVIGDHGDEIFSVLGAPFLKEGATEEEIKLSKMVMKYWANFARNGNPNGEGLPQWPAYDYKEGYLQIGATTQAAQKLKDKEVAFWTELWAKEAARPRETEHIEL
The series can be described thus: Thiazopyr hydrolysis by RLE1 preparation from Prof. Ozols. The note with it: purified RLE1 preparation from Prof. Ozols. Format: biochemical, rabbit. On the procedure: as §1, with “Esterase activity was also assayed during protein purification following a similar procedure except a single time-point (1-2 hrs) of incubation was selected within the linear range of reaction. In vitro assays also employed three commonly used calorimetric (p-nitrophenyl butyrate) or fluorescent (4-methyl umbelliferyl butyrate and 5-bromo-4-chloro-3-indolylacetate) substrates. These substrates are useful in rapidly and qualitatively detecting general esterase activity.” left out

The next series relates to tomato. The series can be described thus: Field test for tomato resistance. Format: in vivo. How it is done:
Field test for tomato resistance. A single field test was conducted in early summer at a Monsanto Company research farm in Jerseyville, Ill. A total of 9 transgenic lines were selected for the field study. […] The remaining 6 lines were R1 seeds selected based on high expression level and seed availability. About 400 seeds were pooled from each line based on uniformity of size and appearance, and randomly separated into 4 groups of about 100 seeds. Four parallel plots (5×20 m) were respectively sprayed with 0, 112, 336, and 673 g/ha of thiazopyr, which was then incorporated down to 7.5 cm of soil depth. The projected field use-rate for thiazopyr is about 280 g/ha. Seeds were placed in a furrow at every 5 cm distance and covered with soil. UC82B seeds were used as untransformed controls. After sowing, 13 mm of water was irrigated over the plots. […] Nevertheless, it was possible to measure thiazopyr resistance based on seedling emergence between control UC82B and the transgenic lines. […] However at 336 g/ha, #8255-30 maintained germination at 10% while UC82B declined to about 1%. […] The transgenic lines flowered, set fruit, and yielded abundant tomatoes and seeds.

Turning to `COC(=O)c1c(C(F)F)nc(C(F)(F)F)c(C(=O)n2cccn2)c1CC(C)C` [MON 14300], the “hydrolysis to monoacid metabolite” value with pyridine-esterase (non-expressing line #37436, FIG. 3) was “no hydrolysis”. The monoacid detected with pyridine-esterase (tobacco, seedling tissue extract) is listed as less than 2%. Further, the metabolism in plants result in the series on tomato seedlings is “little to no metabolism in plants”. In the series with tomato seedlings (tomato, 48 h), the monoacid in residue was 2.5% and the “parent as primary residue” value is reported as 90.8%.

In the case of `COC(=O)c1c(C(F)F)nc(C(F)(F)F)c(C2=NCCS2)c1CC(C)C` [thiazopyr], the figures for the thiazopyr hydrolytic activity entry on RLE1 and on RLE1 (listed as Thiazopyr) were “demonstrated thiazopyr hydrolysis” and “could be demonstrated with RLE1”, respectively. The germination result with tomato (UC82B and #8255-30, 112 g/ha, 21 days after planting) is on record as “slightly lower but still comparable germination”; in the series with tomato (UC82B control, 336 g/ha), “about 1%”; with tomato (UC82B control, 673 g/ha), “no germination at all”; in the series on tomato (transgenic #8255-30, 336 g/ha), 10%; with tomato (transgenic #8255-30, 673 g/ha) it was 4%. In the series on tomato (UC82B plants that germinated at 112 and 336 g/ha), the “survival at later time points” value is “had died due to weakening of the stem at the soil line”. In addition, the “growth at later time points” value in the series with tomato (transgenic lines showing thiazopyr injury) is “growth was not affected”.
